Test results from US9655891B1, “Use of isoquinoline derivatives for diabetic wound healing” (ZIH YUAN TANG Biotechnology Co., Ltd, priority 2016, dated 2017).

Legend:
[1] = system: wounds of STZ induced diabetic rats; assay: Excisional full-thickness skin wound healing in STZ induced diabetic rats (recovery rate); format: in vivo, Wistar rats
Description: Salsolinol ointments at 0.01 mg/g, 0.03 mg/g, 0.1 mg/g, and 0.3 mg/g were prepared respectively by dissolving 0.5 mg, 1.5 mg, 5 mg, and 15 mg of salsoinol in 2.5 mL of glycerol (Sigma Inc., MO, USA) plus 1.0 mL of Creagel emulsifier (First Chemical, TPE, Taiwan) and 45.5 mL of distilled water. Vehicle was composed of glycerol (2.5 mL), Creagel emulsifier (1.0 mL), and distilled water (45.5 mL).
Swivazin®-HN cream was used as positive control for treating the wounds of STZ induced diabetic rats, which contained asiaticoside (4 mg/g), isolated from Centella asiatica. […]. Ethnopharmacology 65 (1999): 1-11].
Adult male Wistar rats were used at four weeks of age, purchased from BioLASCO Taiwan, and were acclimatized in a room with 12-12 h light (7:00 A.M. to 7:00 P.M.)-dark (7:00 P.M. to 7:00 A.M.) cycle, a temperature of 23±1° C., and a humidity of 65±5%.
Each rat had free access to both water and standard rodent soft chow ad libitum. STZ was injected intraperitoneally at a dose of 65 mg/Kg body weight.
All experimental procedures were approved by and performed in compliance with the guidelines of the Institutional Animal Care and Use Committee (IACUC). All surgeries were conducted while animals were under continuous anesthesia with 4% isoflurane.
The dorsal skin was shaved and then disinfected with 10% povidone-iodine before an excisional full-thickness square-shaped skin wound (1.5×1.5 cm) was induced using a sterile wound maker. Animal was then housed alone in its cage to avoid any further wound damage.
. The groups were administered at the same amount once daily and the wounds were photopictured on Day 1, Day 3, Day 5, Day 7, Day 10, and Day 15 and the sizes of the wounds were analyzed using Visual Basic 6.0. Wound closure at experimental time points was calculated as percentage of initial wound area, called as “recovery rate.”

[2] = system: AMP-dependent protein kinase (AMPK); conditions: disclosed in U.S. patent application Ser. No. 14/492,547; cited from earlier work

| Compound | recovery rate (in words) ([1]; FIG. 2, salsolinol 0.01 mg/g, Day 7-15) | wound closure and healing ([1]; FIG. 2, salsolinol at all the concentrations (0.01, 0.03, 0.1, 0.3 mg/g)) | recovery rate (wound closure as percentage of initial wound area) ([1]; FIG. 2, salsolinol ointment 0.01 mg/g once daily, topical, Day 15) | difference in recovery between D+Salsolinol and Swivazin (DP, positive control) ([1]; FIG. 3) | recovery rate compared with groups without treatment (DC) or vehicle (DV) ([1]; FIG. 3, D+Salsolinol) | activation of AMPK [2] |
| --- | --- | --- | --- | --- | --- | --- |
| CC1NCCc2cc(O)c(O)cc21 (stereo not shown) [salsolinol] | relatively improved recovery rate | could enhance the wound closure and healing | over 97% | no obvious difference | significantly increased recovery rate | can activate AMP-dependent protein kinase (AMPK) |
| COc1ccc(C[C@H]2c3cc(O)c(OC)cc3CCN2C)cc1O [reticuline, reference compound] | – | – | – | – | – | can activate AMP-dependent protein kinase (AMPK) |
